Test results as given in US9957237B2, “Crystal form of neptinib di-p-methylbenzenesulfonate, preparation method thereof, and pharmaceutical composition containing same” (SHENZHEN NEPTUNUS PHARMACEUTICAL RESEARCH INSTITUTE CO., …, priority 2014, dated 2018).

Test: Stability studies (stress testing, accelerated test for 10 days) on crystal forms and free base
Format: physicochemical
Description: Detection conditions: Chromatographic column: Waters C18; Mobile phase A: acetonitrile-mobile phase B (70:30); Mobile phase B: 0.05 mol/l ammonium dihydrogen phosphate solution (pH=7.3); Column temperature: 30° C.; Detection wavelength: 247 nm.
Detection method: High performance liquid chromatography method, Pharmacopoeia of the People's Republic of China, Part II Appendix VD

[1] = Day 10, relative humidity 92.5%
[2] = Day 10, stress condition not given

## CCOc1cc2ncnc(Nc3ccc(F)c(Cl)c3)c2cc1NC(=O)/C=C/CN(C)C.Cc1ccc(S(=O)(=O)O)cc1.Cc1ccc(S(=O)(=O)O)cc1.O.O [crystal form β, (E)-N-(4-((3-chloro-4-fluorophenyl)amino)-7-ethoxyquinazolin-6-yl)-4-(dimethylamino)but-2-enamide (Neptinib) di-p-methylbenzene sulfonate 2 hydrate]
Day 0
  Maximum single impurity (%): 0.017 (RRT: 1.22) %
  Purity (%): 99.97%
  Total impurities (%): 0.03%
  Water (%): 4.4%
Day 5, 40° C.
  Maximum single impurity (%): 0.020 (RRT: 1.22) %
  Purity (%): 99.97%
  Total impurities (%): 0.03%
  Water (%): 4.4%
Day 5, 60° C.
  Maximum single impurity (%): 0.151 (RRT: 0.93) %
  Purity (%): 99.83%
  Total impurities (%): 0.17%
  Water (%): 4.3%
Day 5, light irradiation
  Maximum single impurity (%): 0.032 (RRT: 1.17) %
  Purity (%): 99.94%
  Total impurities (%): 0.06%
  Water (%): 4.4%
Day 5, relative humidity 75%
  Maximum single impurity (%): 0.019 (RRT: 1.22) %
  Purity (%): 99.97%
  Total impurities (%): 0.03%
  Water (%): 4.4%
Day 5, relative humidity 92.5%
  Maximum single impurity (%): 0.018 (RRT: 1.22) %
  Purity (%): 99.97%
  Total impurities (%): 0.03%
  Water (%): 4.5%
Day 10, 40° C.
  Maximum single impurity (%): 0.020 (RRT: 122) %
  Purity (%): 99.98%
  Total impurities (%): 0.02%
  Water (%): 4.5%
Day 10, 60° C.
  Maximum single impurity (%): 0.020 (RRT: 1.22) %
  Purity (%): 99.94%
  Total impurities (%): 0.06%
  Water (%): 4.4%
Day 10, light irradiation
  Maximum single impurity (%): 0.177 (RRT: 0.93) %
  Purity (%): 99.80%
  Total impurities (%): 0.20%
  Water (%): 4.5%
Day 10, relative humidity 75%
  Maximum single impurity (%): 0.022 (RRT: 1.22) %
  Purity (%): 99.98%
  Total impurities (%): 0.02%
  Water (%): 4.4%
[1]
  Maximum single impurity (%): 0.021 (RRT: 1.22) %
  Purity (%): 99.98%
  Total impurities (%): 0.02%
  Water (%): 4.5%
[2]
  Maximum single impurity (%): 0.022 (RRT: 1.22) %
  Purity (%): 99.98%
  Total impurities (%): 0.02%
  Water (%): 4.3%

## CCOc1cc2ncnc(Nc3ccc(F)c(Cl)c3)c2cc1NC(=O)/C=C/CN(C)C [Free base, (E)-N-(4-((3-chloro-4-fluorophenyl)amino)-7-ethoxyquinazolin-6-yl)-4-(dimethylamino)but-2-enamide, reference compound]
40° C., Day 5
  Content (%): 98.96%
40° C., Day 10
  Content (%): 98.59%
60° C., Day 5
  Content (%): 96.77%
60° C., Day 10
  Content (%): 95.15%
Day 0
  Content (%): 99.37%
  Maximum single impurity (%): 0.45 (RRT: 1.11) %
Day 5, 40° C.
  Maximum single impurity (%): 0.46 (RRT: 1.11) %
Day 5, 60° C.
  Maximum single impurity (%): 2.14 (RRT: 0.44) %
Day 10, 40° C.
  Maximum single impurity (%): 0.71 (RRT: 0.43) %
Day 10, 60° C.
  Maximum single impurity (%): 2.88 (RRT: 0.43) %
Under the condition of 60° C.
  Stability (result in words): obviously degraded

## CCOc1cc2ncnc(Nc3ccc(F)c(Cl)c3)c2cc1NC(=O)/C=C/CN(C)C.Cc1ccc(S(=O)(=O)O)cc1 [crystal form α, (E)-N-(4-((3-chloro-4-fluorophenyl)amino)-7-ethoxyquinazolin-yl)-4-(dimethylamino)but-2-enamide (Neptinib) di-p-methylbenzene sulfonate 1.5 hydrate]
Day 0
  Maximum single impurity (%): 0.021 (RRT: 1.22) %
  Purity (%): 99.98%
  Total impurities (%): 0.02%
  Water (%): 3.3%
Day 5, 40° C.
  Maximum single impurity (%): 0.022 (RRT: 1.22) %
  Purity (%): 99.98%
  Total impurities (%): 0.02%
  Water (%): 3.3%
Day 5, 60° C.
  Maximum single impurity (%): 0.022 (RRT: 1.22) %
  Purity (%): 99.96%
  Total impurities (%): 0.04%
  Water (%): 3.3%
Day 5, light irradiation
  Maximum single impurity (%): 0.051 (RRT: 0.93) %
  Purity (%): 99.93%
  Total impurities (%): 0.07%
  Water (%): 3.1%
Day 5, relative humidity 75%
  Maximum single impurity (%): 0.021 (RRT: 1.22) %
  Purity (%): 99.98%
  Total impurities (%): 0.02%
  Water (%): 3.1%
Day 5, relative humidity 92.5%
  Maximum single impurity (%): 0.021 (RRT: 1.22) %
  Purity (%): 99.98%
  Total impurities (%): 0.02%
  Water (%): 3.2%
Day 10, 40° C.
  Maximum single impurity (%): 0.022 (RRT: 1.22) %
  Purity (%): 99.98%
  Total impurities (%): 0.02%
  Water (%): 3.3%
Day 10, 60° C.
  Maximum single impurity (%): 0.020 (RRT: 1.22) %
  Purity (%): 99.96%
  Total impurities (%): 0.04%
  Water (%): 3.3%
Day 10, light irradiation
  Maximum single impurity (%): 0.055 (RRT: 0.93) %
  Purity (%): 99.91%
  Total impurities (%): 0.09%
  Water (%): 3.1%
Day 10, relative humidity 75%
  Maximum single impurity (%): 0.022 (RRT: 1.22) %
  Purity (%): 99.98%
  Total impurities (%): 0.02%
  Water (%): 3.1%
[1]
  Maximum single impurity (%): 0.022 (RRT: 1.22) %
  Purity (%): 99.98%
  Total impurities (%): 0.02%
  Water (%): 3.2%
[2]
  Maximum single impurity (%): 0.022 (RRT: 1.22) %
  Purity (%): 99.98%
  Total impurities (%): 0.02%
  Water (%): 3.2%
